Test results as given in US20110046131A1, “PURINES AS PKC-THETA INHIBITORS” (N.V. Organon and Pharmacopeia, LLC, priority 2006, published 2011).
pIC50, pKi: −log10 of the molar value.

Assays:
PKC alpha = molecular target: T1, PKC alpha (Homo sapiens, UniProt P17252); test: Ki Pan Vera (PV) potency for PKC alpha; assay type: biochemical; details: Ki Pan Vera (PV) of PKC alpha
T1 construct: purchased Pan Vera
Description: [The source words this procedure for another target and reports this target under the same test.] (§1) For Ki Pan Vera (PV) of PKCθ, entries identified with “A” had values below 100 nM; entries identified with “B” had values below 1 μM; and entries identified with “C” had values below 10 μM.

PKC delta = molecular target: T2, PKC delta (Homo sapiens, UniProt Q05655); test: Ki Pan Vera (PV) potency for PKC delta; assay type: biochemical; details: Ki Pan Vera (PV) of PKC delta
T2 construct: purchased Pan Vera
T2 sequence (Q05655 whole entry): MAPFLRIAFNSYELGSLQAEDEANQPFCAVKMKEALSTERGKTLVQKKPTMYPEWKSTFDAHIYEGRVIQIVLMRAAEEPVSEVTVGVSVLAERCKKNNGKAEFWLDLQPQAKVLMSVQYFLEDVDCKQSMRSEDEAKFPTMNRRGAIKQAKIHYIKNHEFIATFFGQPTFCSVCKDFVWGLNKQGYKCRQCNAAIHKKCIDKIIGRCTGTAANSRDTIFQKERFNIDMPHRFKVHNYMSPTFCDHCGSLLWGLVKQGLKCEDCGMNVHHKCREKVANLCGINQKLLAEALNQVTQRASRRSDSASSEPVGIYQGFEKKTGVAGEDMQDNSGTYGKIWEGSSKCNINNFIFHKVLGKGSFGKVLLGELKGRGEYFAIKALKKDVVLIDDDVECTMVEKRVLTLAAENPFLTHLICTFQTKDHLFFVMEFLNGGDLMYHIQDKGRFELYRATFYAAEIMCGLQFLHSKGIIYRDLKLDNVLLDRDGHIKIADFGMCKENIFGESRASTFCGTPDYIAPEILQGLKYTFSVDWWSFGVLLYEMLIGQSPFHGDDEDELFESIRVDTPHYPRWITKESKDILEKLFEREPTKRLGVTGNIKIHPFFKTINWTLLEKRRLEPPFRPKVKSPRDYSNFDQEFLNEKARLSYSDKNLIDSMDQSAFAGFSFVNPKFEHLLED
Description: [The source words this procedure for another target and reports this target under the same test.] as §1

SGK kinase = molecular target: T3, SGK kinase (Homo sapiens, UniProt O00141); test: IC50 for SGK kinase (selectivity); assay type: biochemical
T3 sequence (O00141 1-431): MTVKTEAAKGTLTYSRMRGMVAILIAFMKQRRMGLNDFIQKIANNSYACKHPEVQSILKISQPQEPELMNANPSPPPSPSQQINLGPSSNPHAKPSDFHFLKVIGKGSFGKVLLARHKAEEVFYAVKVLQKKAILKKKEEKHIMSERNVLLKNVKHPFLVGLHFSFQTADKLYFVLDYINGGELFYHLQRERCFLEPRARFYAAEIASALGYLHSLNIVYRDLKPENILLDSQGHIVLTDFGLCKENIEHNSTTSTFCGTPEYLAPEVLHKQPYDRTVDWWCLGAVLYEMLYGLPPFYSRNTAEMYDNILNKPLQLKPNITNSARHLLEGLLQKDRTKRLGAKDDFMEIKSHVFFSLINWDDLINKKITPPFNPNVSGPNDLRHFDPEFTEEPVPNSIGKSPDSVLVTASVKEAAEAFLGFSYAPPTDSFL
Description: Entries identified with “1” had values above 250 nM; entries identified with “2” had values above 1 μM; entries identified with “3” had values above 10 μM.

PKCθ = molecular target: T4, PKCθ (Homo sapiens, UniProt Q04759); test: Ki Pan Vera (PV) potency for PKCθ; assay type: biochemical; details: Ki Pan Vera (PV) of PKCθ
T4 construct: purchased Pan Vera
T4 sequence (Q04759 whole entry): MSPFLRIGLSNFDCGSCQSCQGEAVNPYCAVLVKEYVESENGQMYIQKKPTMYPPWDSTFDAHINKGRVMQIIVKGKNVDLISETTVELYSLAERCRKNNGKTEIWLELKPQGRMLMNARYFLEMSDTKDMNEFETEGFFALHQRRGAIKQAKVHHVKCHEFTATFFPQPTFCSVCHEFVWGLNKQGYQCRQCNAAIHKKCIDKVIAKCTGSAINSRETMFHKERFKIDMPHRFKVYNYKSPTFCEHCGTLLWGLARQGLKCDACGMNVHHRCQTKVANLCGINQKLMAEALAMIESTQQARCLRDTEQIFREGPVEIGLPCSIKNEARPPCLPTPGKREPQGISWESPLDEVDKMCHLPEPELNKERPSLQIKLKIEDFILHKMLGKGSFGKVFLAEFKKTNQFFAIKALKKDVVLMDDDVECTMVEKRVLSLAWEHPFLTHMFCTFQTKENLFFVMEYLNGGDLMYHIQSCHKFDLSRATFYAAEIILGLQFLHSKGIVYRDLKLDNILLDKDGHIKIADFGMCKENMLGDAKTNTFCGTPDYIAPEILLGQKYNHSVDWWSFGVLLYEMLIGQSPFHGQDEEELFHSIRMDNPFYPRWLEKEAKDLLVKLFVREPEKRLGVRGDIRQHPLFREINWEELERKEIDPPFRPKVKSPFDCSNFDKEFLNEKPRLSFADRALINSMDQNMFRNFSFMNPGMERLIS
Description: as §1

[1] = tested on: anti-CD3 induced interleukin-2 (IL-2) production; test: anti-CD3 induced interleukin-2 (IL-2) production in mice; assay type: in vivo
Description: The compounds of the invention were also tested in vivo.

pKi (PKC alpha) | pKi (PKC delta) | IC50-SGK1 (SGK kinase) | pKi (PKCθ) | pIC50 (SGK kinase; read-out: IC50-SGK1) | Structure (SMILES) | % inhibition of IL-2 production ([1]; subcutaneous dose 30 mg/kg) | % inhibition of IL-2 production ([1]; subcutaneous dose 1 mg/kg)
< 6.00 | < 6.60 | Inactive | > 7.00 | – | Fc1ccc(CNc2ncc3nc(-c4c(Cl)cccc4Cl)n(C[C@@H]4CCCNC4)c3n2)cc1Cl [Compound 100] | 38% | –
< 6.00 | < 6.60 | Inactive | > 7.00 | – | Fc1ccc(CNc2ncc3nc(-c4c(Cl)cccc4Cl)n(C[C@@H]4CCCNC4)c3n2)cc1F [Compound 101] | 58% | –
< 6.00 | < 6.60 | – | > 7.00 | – | Fc1ccc(CNc2ncc3nc(-c4c(F)cccc4Cl)n(C[C@@H]4CCCNC4)c3n2)cc1F [Compound 113, N-(3,4-difluorobenzyl)-8-(2-chloro-6-fluorophenyl)-9-((R)-piperidin-3-ylmethyl)-9H-purin-2-amine] | 38% | –
< 6.00 | < 6.00 | Inactive | > 6.00 | – | Fc1ccc(CNc2ncc3nc(-c4c(Cl)cccc4Cl)n(C[C@H]4CCNC4)c3n2)cc1Cl [Compound 120] | 35% | –
< 6.00 | < 6.00 | Inactive | > 6.00 | – | Fc1cccc(Cl)c1-c1nc2cnc(NCc3cccc(Cl)c3)nc2n1C[C@H]1CCNC1 [Compound 216] | – | –
< 5.00 | < 5.00 | Inactive | > 6.00 | – | C[C@H](Nc1ncc2nc(-c3ccccc3Cl)n(C[C@@H]3CCCNC3)c2n1)c1ccccc1F [Compound 217] | – | –
< 6.00 | < 6.00 | – | > 6.00 | < 5.00 | Fc1ccc(CNc2ncc3nc(-c4c(F)cccc4Cl)n(CC4CCNC4)c3n2)cc1F (stereo not drawn) [Compound 223] | – | –
< 5.00 | < 6.00 | Inactive | > 6.00 | – | Fc1ccccc1CNc1ncc2nc(-c3ccccc3Cl)n(CCC3CCNCC3)c2n1 [Compound 240] | – | –
– | – | – | – | – | C=CC[C@@H]1/C=C(\C)C[C@H](C)C[C@H](OC)[C@H]2O[C@@](O)(C(=O)C(=O)N3CCCC[C@H]3C(=O)O[C@H](/C(C)=C/[C@@H]3CC[C@@H](O)[C@H](OC)C3)[C@H](C)[C@@H](O)CC1=O)[C@H](C)C[C@@H]2OC [FK506, reference compound] | – | 87%
